Results published in patent US9695155B2, “Herbicidal substituted pyrimidinyloxy benzene compounds” (E. I. DU PONT DE NEMOURS AND COMPANY, priority 2013, dated 2017).

Assays:
[1] = tested on: barnyardgrass; test: Test B flooded paddy test; type: in vivo, Echinochloa crus-galli; details: Flood, 250 g ai/ha, 0 to 100 scale where 0 is no effect and 100 is complete control
Outline: (§1)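 2-leaf stage plants; pots flooded to 3 cm, compound added to paddy water, depth maintained. Greenhouse 13–15 d. Visual rating vs untreated controls, 0 (no effect) to 100 (complete control); dash = no result.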

[2] = tested on: rice; test: Test B flooded paddy test; type: in vivo, Oryza sativa; details: Flood, 250 g ai/ha, 0 to 100 scale where 0 is no effect and 100 is complete control
Outline: as §1

[3] = tested on: giant foxtail; test: Test A preemergence; type: in vivo, Setaria faberii; details: for Foxtail, Giant plant response rating (0 to 100 scale): 125 g ai/ha; for Foxtail, Giant plant response rating: 500 g ai/ha, 0 to 100 scale where 0 is no effect and 100 is complete control
Outline: (§2)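 Greenhouse pot test, loam/sand soil. Formulation: non-phytotoxic solvent mix plus surfactant. Pre: directed spray onto soil after sowing. Post: plants at 1–2 leaf, 2–10 cm. Rated visually vs untreated controls at ~10 d, 0 (no effect) to 100 (complete control).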

[4] = tested on: morningglory; test: Test A postemergence; type: in vivo, Ipomoea spp.
Outline: as §2

[5] = tested on: sedge, umbrella; test: Test B flooded paddy test; type: in vivo, Cyperus difformis; details: Flood, 250 g ai/ha, 0 to 100 scale where 0 is no effect and 100 is complete control
Outline: as §1

[6] = tested on: pigweed; test: Test A postemergence; type: in vivo, Amaranthus retroflexus
Outline: as §2

[7] = tested on: large (Lg) crabgrass; test: Test A postemergence; type: in vivo, Digitaria sanguinalis
Outline: as §2

[8] = tested on: barnyardgrass; test: Test A postemergence; type: in vivo, Echinochloa crus-galli
Outline: as §2

[9] = tested on: giant foxtail; test: Test A postemergence; type: in vivo, Setaria faberii
Outline: as §2

[10] = tested on: pigweed; test: Test A preemergence; type: in vivo, Amaranthus retroflexus; details: for Pigweed plant response rating (0 to 100 scale): 125 g ai/ha; for Pigweed plant response rating: 500 g ai/ha, 0 to 100 scale where 0 is no effect and 100 is complete control
Outline: as §2

[11] = tested on: corn; test: Test A postemergence; type: in vivo, Zea mays
Outline: as §2

[12] = tested on: wheat; test: Test A preemergence; type: in vivo, Triticum aestivum; details: for Wheat plant response rating (0 to 100 scale): 125 g ai/ha; for Wheat plant response rating: 500 g ai/ha, 0 to 100 scale where 0 is no effect and 100 is complete control
Outline: as §2

[13] = tested on: barnyardgrass; test: Test A preemergence; type: in vivo, Echinochloa crus-galli; details: for Barnyardgrass plant response rating (0 to 100 scale, 0 is no effect, 100 is complete control): 125 g ai/ha; for Barnyardgrass plant response rating: 500 g ai/ha, 0 to 100 scale where 0 is no effect and 100 is complete control
Outline: as §2

[14] = tested on: morningglory; test: Test A preemergence; type: in vivo, Ipomoea spp.; details: for Morningglory plant response rating (0 to 100 scale): 125 g ai/ha; for Morningglory plant response rating: 500 g ai/ha, 0 to 100 scale where 0 is no effect and 100 is complete control
Outline: as §2

[15] = tested on: velvetleaf; test: Test A postemergence; type: in vivo, Abutilon theophrasti
Outline: as §2

[16] = tested on: velvetleaf; test: Test A preemergence; type: in vivo, Abutilon theophrasti; details: for Velvetleaf plant response rating (0 to 100 scale): 125 g ai/ha; for Velvetleaf plant response rating: 500 g ai/ha, 0 to 100 scale where 0 is no effect and 100 is complete control
Outline: as §2

[17] = tested on: Heteranthera limosa; test: Test B flooded paddy test; type: in vivo; details: Flood, 250 g ai/ha, 0 to 100 scale where 0 is no effect and 100 is complete control
Outline: as §1

[18] = tested on: wheat; test: Test A postemergence; type: in vivo, Triticum aestivum
Outline: as §2

[19] = tested on: large (Lg) crabgrass; test: Test A preemergence; type: in vivo, Digitaria sanguinalis; details: for Crabgrass, Large plant response rating (0 to 100 scale): 125 g ai/ha; for Crabgrass, Large plant response rating: 500 g ai/ha, 0 to 100 scale where 0 is no effect and 100 is complete control
Outline: as §2

[20] = tested on: corn; test: Test A preemergence; type: in vivo, Zea mays; details: for Corn plant response rating (0 to 100 scale): 125 g ai/ha; for Corn plant response rating: 500 g ai/ha, 0 to 100 scale where 0 is no effect and 100 is complete control
Outline: as §2

[21] = 125 g ai/ha, 0 to 100 scale, 0 no effect, 100 complete control
[22] = 500 g ai/ha, 0 to 100 scale where 0 is no effect and 100 is complete control
[23] = 125 g ai/ha, 0 to 100 scale where 0 is no effect and 100 is complete control

NN=Cc1cccc(Oc2ncc(Cl)cn2)c1-n1cc(Cl)cn1 [Compound 295]
Plant response rating, Barnyardgrass [1]: 0 | Plant response rating, Rice [2]: 0 | Foxtail, Giant plant response rating (0 to 100 scale) [3]: 0 | Foxtail, Giant plant response rating [3]: 0 | Plant response rating, Morningglory [4, 21]: 40 | Plant response rating, Morningglory [4, 22]: 40 | Plant response rating, Sedge, Umbrella [5]: 0 | Plant response rating, Pigweed [6, 21]: 40 | Plant response rating, Pigweed [6, 22]: 70 | Plant response rating, Crabgrass, Large [7, 21]: 0 | Plant response rating, Crabgrass, Large [7, 22]: 0 | Plant response rating, Barnyardgrass [8, 21]: 0 | Plant response rating, Barnyardgrass [8, 22]: 0 | Plant response rating, Foxtail, Giant [9, 21]: 0 | Plant response rating, Foxtail, Giant [9, 22]: 0 | Pigweed plant response rating (0 to 100 scale) [10]: 20 | Pigweed plant response rating [10]: 60 | Plant response rating, Corn [11, 21]: 0 | Plant response rating, Corn [11, 22]: 0 | Wheat plant response rating (0 to 100 scale) [12]: 0 | Wheat plant response rating [12]: 0 | Barnyardgrass plant response rating (0 to 100 scale, 0 is no effect, 100 is complete control) [13]: 0 | Barnyardgrass plant response rating [13]: 0 | Morningglory plant response rating (0 to 100 scale) [14]: 0 | Morningglory plant response rating [14]: 0 | Plant response rating, Velvetleaf [15, 21]: 30 | Plant response rating, Velvetleaf [15, 22]: 30 | Velvetleaf plant response rating (0 to 100 scale) [16]: 0 | Velvetleaf plant response rating [16]: 0 | Plant response rating, Ducksalad [17]: 0 | Plant response rating, Wheat [18, 21]: 0 | Plant response rating, Wheat [18, 22]: 0 | Crabgrass, Large plant response rating (0 to 100 scale) [19]: 0 | Crabgrass, Large plant response rating [19]: 0 | Corn plant response rating (0 to 100 scale) [20]: 0 | Corn plant response rating [20]: 0

Clc1cnc(Oc2ccccc2-n2ncc(Br)n2)nc1 [Compound 54, 2-[2-(4-bromo-2H-1,2,3-triazol-2-yl)phenoxy]-5-chloropyrimidine]
pest or weed control at 250 g/ha ([1]; Echinochloa crus-galli, read-out: Plant response rating, Barnyardgrass): 0% | plant injury at 250 g/ha ([2]; Oryza sativa, read-out: Plant response rating, Rice): 0% | pest or weed control at 1000 g/ha ([3]; Setaria faberi, pre-emergence, 240 h, 1000 g ai/ha, 0 to 100 scale, 0 no effect, 100 complete control, approx. 10 days, read-out: Foxtail, Giant plant response rating): 100% | pest or weed control at 1000 g/ha ([4]; Ipomoea, post-emergence, 240 h, 1000 g ai/ha, 0 to 100 scale, 0 no effect, 100 complete control, read-out: Plant response rating Morningglory): 100% | pest or weed control at 250 g/ha ([5]; Cyperus difformis, read-out: Plant response rating, Sedge, Umbrella): 0% | pest or weed control at 1000 g/ha ([6]; Amaranthus retroflexus, post-emergence, 240 h, 1000 g ai/ha, 0 to 100 scale, 0 no effect, 100 complete control, read-out: Plant response rating Pigweed): 100% | pest or weed control at 1000 g/ha ([7]; Digitaria sanguinalis, post-emergence, 240 h, 1000 g ai/ha, 0 to 100 scale, 0 no effect, 100 complete control, read-out: Plant response rating Crabgrass, Large): 100% | pest or weed control at 1000 g/ha ([8]; Echinochloa crus-galli, post-emergence, 240 h, 1000 g ai/ha, 0 to 100 scale, 0 no effect, 100 complete control, read-out: Plant response rating Barnyardgrass): 30% | pest or weed control at 1000 g/ha ([9]; Setaria faberi, post-emergence, 240 h, 1000 g ai/ha, 0 to 100 scale, 0 no effect, 100 complete control, read-out: Plant response rating Foxtail, Giant): 70% | pest or weed control at 1000 g/ha ([10]; Amaranthus retroflexus, pre-emergence, 240 h, 1000 g ai/ha, 0 to 100 scale, 0 no effect, 100 complete control, approx. 10 days, read-out: Pigweed plant response rating): 100% | plant injury at 1000 g/ha ([11]; Zea mays, post-emergence, 240 h, 1000 g ai/ha, 0 to 100 scale, 0 no effect, 100 complete control, read-out: Plant response rating Corn): 50% | plant injury at 1000 g/ha ([12]; Triticum aestivum, pre-emergence, 240 h, 1000 g ai/ha, 0 to 100 scale, 0 no effect, 100 complete control, approx. 10 days, read-out: Wheat plant response rating): 0% | pest or weed control at 1000 g/ha ([13]; Echinochloa crus-galli, pre-emergence, 240 h, 1000 g ai/ha, 0 to 100 scale, 0 no effect, 100 complete control, read-out: Plant response rating, Barnyardgrass): 0% | pest or weed control at 1000 g/ha ([14]; Ipomoea, pre-emergence, 240 h, 1000 g ai/ha, 0 to 100 scale, 0 no effect, 100 complete control, approx. 10 days, read-out: Morningglory plant response rating): 70% | pest or weed control at 1000 g/ha ([15]; Abutilon theophrasti, post-emergence, 240 h, 1000 g ai/ha, 0 to 100 scale, 0 no effect, 100 complete control, read-out: Plant response rating Velvetleaf): 80% | pest or weed control at 1000 g/ha ([16]; Abutilon theophrasti, pre-emergence, 240 h, 1000 g ai/ha, 0 to 100 scale, 0 no effect, 100 complete control, approx. 10 days, read-out: Velvetleaf plant response rating): 100% | pest or weed control at 250 g/ha ([17]; Heteranthera limosa, read-out: Plant response rating, Ducksalad): 0% | plant injury at 1000 g/ha ([18]; Triticum aestivum, post-emergence, 240 h, 1000 g ai/ha, 0 to 100 scale, 0 no effect, 100 complete control, read-out: Plant response rating Wheat): 0% | pest or weed control at 1000 g/ha ([19]; Digitaria sanguinalis, pre-emergence, 240 h, 1000 g ai/ha, 0 to 100 scale, 0 no effect, 100 complete control, read-out: Plant response rating, Crabgrass, Large): 100% | Corn plant response rating (crop injury, 0 = no effect, 100 = complete kill) at 1000 g/ha ([20]; Zea mays, pre-emergence, 240 h, 1000 g ai/ha, 0 to 100 scale, 0 no effect, 100 complete control): 20%

N#Cc1cccc(Oc2ncc(Cl)cn2)c1-n1cccn1 [Compound 208]
Plant response rating, Barnyardgrass [1]: 0 | Plant response rating, Rice [2]: 0 | Foxtail, Giant plant response rating (0 to 100 scale) [3]: 20 | Foxtail, Giant plant response rating [3]: 90 | Morningglory plant response rating [4, 23]: 20 | Plant response rating, Morningglory [4, 22]: 80 | Plant response rating, Sedge, Umbrella [5]: 0 | Pigweed plant response rating [6, 23]: 30 | Plant response rating, Pigweed [6, 22]: 100 | Crabgrass, Large plant response rating [7, 23]: 0 | Plant response rating, Crabgrass, Large [7, 22]: 20 | Barnyardgrass plant response rating [8, 23]: 0 | Plant response rating, Barnyardgrass [8, 22]: 0 | Foxtail, Giant plant response rating [9, 23]: 0 | Plant response rating, Foxtail, Giant [9, 22]: 20 | Pigweed plant response rating (0 to 100 scale) [10]: 30 | Pigweed plant response rating [10]: 100 | Corn plant response rating [11, 23]: 0 | Plant response rating, Corn [11, 22]: 20 | Wheat plant response rating (0 to 100 scale) [12]: 0 | Wheat plant response rating [12]: 20 | Barnyardgrass plant response rating (0 to 100 scale, 0 is no effect, 100 is complete control) [13]: 0 | Barnyardgrass plant response rating [13]: 70 | Morningglory plant response rating (0 to 100 scale) [14]: 0 | Morningglory plant response rating [14]: 30 | Velvetleaf plant response rating [15, 23]: 40 | Plant response rating, Velvetleaf [15, 22]: 60 | Velvetleaf plant response rating (0 to 100 scale) [16]: 0 | Velvetleaf plant response rating [16]: 50 | Plant response rating, Ducksalad [17]: 0 | Wheat plant response rating [18, 23]: 0 | Plant response rating, Wheat [18, 22]: 0 | Crabgrass, Large plant response rating (0 to 100 scale) [19]: 20 | Crabgrass, Large plant response rating [19]: 100 | Corn plant response rating (0 to 100 scale) [20]: 0 | Corn plant response rating [20]: 0
